According to PMC6770006, “Novel Heat Shock Protein 90 Inhibitors Suppress P-Glycoprotein Activity and Overcome Multidrug Resistance in Cancer Cells” (International Journal of Molecular Sciences, 2019):
Entries after “also recorded” stand apart in the source; their conditions may differ.

Tests used:
NCI-H460/R cells = experiment: MTT assay, cell growth inhibition, NCI-H460/R (MDR); format: cell-based, human; conditions: for Efficacy in MDR NCI-H460/R cells compared with sensitive NCI-H460: 72 h; for IC50: Homo sapiens, NCI-H460, 72 h, MDR cells
Description: (§1) A series of 3-aryl-naphtho[2,3-d]isoxazole-4,9-diones were synthesized (Scheme 1, Figure 1) and their growth inhibition activity was tested in vitro on human non-small cell lung carcinoma NCI-H460, colorectal carcinoma DLD1 and their corresponding MDR cells (NCI-H460/R and DLD1-TxR, respectively), as well as normal embryonic lung fibroblasts MRC-5. The differences in cell growth inhibition between cancer and normal cells obtained by the MTT assay after 72 h treatment are presented in Table 1. The effect of compounds is presented as IC50 values that correspond to the 50% of cell growth inhibition.
(§2) Human colorectal carcinoma (DLD1), non-small cell lung carcinoma (NCI-H460), and normal embryonic lung fibroblast (MRC-5) cell lines were purchased from the American Type Culture Collection, Rockville, MD. P-gp overexpressing multidrug resistant DLD1-TxR cells were selected by continuous exposure to stepwise increasing concentrations of paclitaxel from DLD1 cells, while NCI-H460/R cells were selected from NCI-H460 cells after DOX selective pressure. MDR cancer cell lines, DLD1-TxR and NCI-H460/R, and their sensitive counterparts were maintained in RPMI 1640 medium supplemented with 10% FBS, 2 mM L-glutamine, and 10,000 U/mL penicillin, 10 mg/mL streptomycin, 25 mg/mL amphotericin B solutions. MRC-5 cells were cultured in DMEM supplemented with 10% FBS, 4 g/L glucose, 2 mM L-glutamine and 5000 U/mL penicillin, 5 mg/mL streptomycin solution. All cell lines were sub-cultured at 72 h intervals using 0.25% trypsin/EDTA and seeded into a fresh medium at 8000 cells/cm^2. All cell lines were maintained at 37 °C in a humidified 5% CO2 atmosphere.
(§3) Cell viability was assessed by the MTT assay (AppliChem GmbH, Darmstadt, Germany). Cells grown in 25 cm^2 tissue flasks were trypsinized and 1000 cells/well were seeded into flat-bottomed 96-well tissue culture plates and incubated overnight. Subsequently, the cells were treated with increasing concentrations of Hsp90 inhibitors for 72 h: compound 3 (0.1–2.5 µM), compound 4 (0.25–5 µM), compound 5 (0.5–25 µM), compound 6 (50–1000 nM), compound 7 (10–250 nM), compound 8 (0.25–5 µM), compound 9 (10–250 nM), compound 10 (0.5–25 µM), compound 13 (0.5–10 µM), compound 14 (1–25 µM), and compound 15 (10–250 nM). […] After treatment, MTT was added to each well in a final concentration of 0.2 mg/mL for 4 h. Formazan product was dissolved in 200 µl of DMSO, and the absorbance was measured at 540 nm using an automatic LKB 5060-006 Micro Plate Reader (Vienna, Austria). IC50 value was defined as a concentration of the drug that inhibited cell growth by 50% and was calculated by nonlinear regression analysis using GraphPad Prism 6.0 for Windows (La Jolla, CA, USA). Relative selectivity towards cancer cells was calculated as a relation between IC50 value obtained in MRC-5 cells and an average IC50 value from four tested cancer cell lines.

MRC-5 cells = experiment: MTT assay, normal embryonic lung fibroblasts MRC-5; format: cell-based, human; conditions: for IC50: Homo sapiens, MRC5, MTT, 72 h, normal fibroblasts, read-out: Cell growth inhibition IC50, MRC-5; for Relative Selectivity: IC50 in MRC-5 cells / average IC50 of four cancer cell lines
Description: as §1, §3

Hsp90 = tested on: Hsp90; design: method as in PMID 22538015; conditions: read-out: Hsp90 Affinity binding; cited from earlier work
DLD1 cells = experiment: MTT assay, cell growth inhibition, DLD1; format: cell-based; conditions: Homo sapiens, DLD-1, 72 h
Description: as §1, §3

P-gp [1] = biological target: T1, P-gp (Homo sapiens, UniProt P08183); experiment: Rhodamine 123 accumulation assay (P-gp activity, flow cytometry); format: cell-based; design: P-gp overexpressing multidrug resistant DLD1-TxR cells were selected by continuous exposure to stepwise increasing concentrations of paclitaxel from DLD1 cells; endogenous in cells; host or cells: NCI-H460/R and DLD1-TxR (drug-selected MDR human cancer cells); conditions: NCI-H460/R and DLD1-TxR, 30 min, Figure 3b
P-gp [2] = biological target: T1, P-gp; experiment: as above; format: cell-based; design: P-gp overexpressing multidrug resistant DLD1-TxR cells were selected by continuous exposure to stepwise increasing concentrations of paclitaxel from DLD1 cells; endogenous in cells; host or cells: NCI-H460/R and DLD1-TxR (drug-selected MDR human cancer cells); conditions: MDR NCI-H460/R and DLD1-TxR cells, 30 min, one concentration per compound (100 nM-10 µM), Figure 3a
Description: To study the effect of Hsp90 inhibitors on P-gp activity in MDR cancer cells, intracellular accumulation of the P-gp substrate rhodamine 123 (Rho 123) was analyzed by flow cytometry after 30 min treatment (Figure 3a). A well-known inhibitor of P-gp activity, tariquidar (TQ), was included as a positive control.
The accumulation of Rho 123, a fluorescent P-gp substrate, was measured by flow cytometry. The intensity of the fluorescence is proportional to Rho 123 accumulation in the cell. All cell lines were seeded in adherent 6-well plates and grown overnight. DLD1-TxR and NCI-H460/R cells were treated for 30 min with the following concentrations of Hsp90 inhibitors: 500 nM compound 3, 1 µM compound 4, 10 µM compound 5, 500 nM compound 6, 500 nM compound 7, 1 µM compound 8, 500 nM compound 9, 1 µM compound 10, 1 µM compound 13, 10 µM compound 14, 100 nM compound 15. TQ (10 nM) was used as a positive control for Rho 123 accumulation. Rho 123 (5 μM) was simultaneously added with the investigated compounds and the cells were incubated at 37 °C in 5% CO2 for 30 min. The cells were then trypsinized, pelleted by centrifugation, washed with PBS and placed in ice-cold PBS. The samples were kept on ice in the dark until the analysis on CyFlow Space Partec flow cytometer (Sysmex Partec GmbH, Görlitz, Germany). The fluorescence of Rho 123 was detected on fluorescence channel 1 (FL1-H) at 530 nm. A minimum of 10,000 events were collected for each sample and the obtained results were analyzed using Summit software.

DLD1-TxR cells = experiment: MTT assay, cell growth inhibition, DLD1-TxR (MDR); format: cell-based, human; conditions: 72 h; for IC50: Homo sapiens, MDR cells
Description: as §1, §2, §3

NCI-H460 cells = experiment: MTT assay, cell growth inhibition, NCI-H460; format: cell-based; conditions: Homo sapiens, 72 h, three independent experiments
Description: as §1, §3

T1 sequence (P08183 whole entry): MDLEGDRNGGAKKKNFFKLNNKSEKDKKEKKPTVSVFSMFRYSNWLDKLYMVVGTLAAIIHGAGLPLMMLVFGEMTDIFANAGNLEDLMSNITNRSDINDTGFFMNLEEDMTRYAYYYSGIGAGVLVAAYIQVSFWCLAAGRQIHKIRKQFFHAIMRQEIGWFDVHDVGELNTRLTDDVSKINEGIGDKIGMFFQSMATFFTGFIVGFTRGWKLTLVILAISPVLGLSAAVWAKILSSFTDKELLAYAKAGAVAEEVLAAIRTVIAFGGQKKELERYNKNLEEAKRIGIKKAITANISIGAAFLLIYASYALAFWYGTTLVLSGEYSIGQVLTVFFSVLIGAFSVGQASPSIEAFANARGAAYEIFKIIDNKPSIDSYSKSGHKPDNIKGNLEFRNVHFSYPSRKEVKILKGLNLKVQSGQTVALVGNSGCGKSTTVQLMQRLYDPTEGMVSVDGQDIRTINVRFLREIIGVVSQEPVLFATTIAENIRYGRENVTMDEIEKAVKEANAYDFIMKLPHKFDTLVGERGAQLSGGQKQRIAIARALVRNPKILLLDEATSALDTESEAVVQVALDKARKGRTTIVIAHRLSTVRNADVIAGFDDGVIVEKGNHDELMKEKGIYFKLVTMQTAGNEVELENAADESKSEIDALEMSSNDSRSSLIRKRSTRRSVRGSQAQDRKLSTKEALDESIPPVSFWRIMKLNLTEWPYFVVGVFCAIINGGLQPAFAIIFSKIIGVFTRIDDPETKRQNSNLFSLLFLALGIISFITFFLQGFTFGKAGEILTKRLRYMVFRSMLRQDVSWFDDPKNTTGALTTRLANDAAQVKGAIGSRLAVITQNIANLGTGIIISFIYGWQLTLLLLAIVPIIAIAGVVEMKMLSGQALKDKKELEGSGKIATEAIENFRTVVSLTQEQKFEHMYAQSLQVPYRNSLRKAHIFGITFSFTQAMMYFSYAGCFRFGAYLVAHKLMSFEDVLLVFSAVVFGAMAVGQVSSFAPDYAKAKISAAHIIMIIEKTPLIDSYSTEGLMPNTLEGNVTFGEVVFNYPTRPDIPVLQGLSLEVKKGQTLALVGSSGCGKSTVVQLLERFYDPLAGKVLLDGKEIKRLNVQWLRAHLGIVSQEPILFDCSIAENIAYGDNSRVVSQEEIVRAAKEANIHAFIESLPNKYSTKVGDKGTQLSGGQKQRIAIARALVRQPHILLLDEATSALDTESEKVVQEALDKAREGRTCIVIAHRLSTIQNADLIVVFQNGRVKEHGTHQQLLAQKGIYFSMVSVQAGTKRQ

IC50 (NCI-H460/R cells) [nM]	IC50 (DLD1 cells) [nM]	Concentration dependence of P-gp inhibition (Rho 123 accumulation) (P-gp [1])	IC50 (DLD1-TxR cells) [nM]	IC50 (NCI-H460 cells) [nM]	SMILES	Efficacy in MDR NCI-H460/R cells compared with sensitive NCI-H460 (NCI-H460/R cells)	IC50 (MRC-5 cells) [nM]	Relative Selectivity (MRC-5 cells)	IC50 (Hsp90) [nM]	P-gp activity / Rho 123 accumulation (P-gp [2])	Efficacy in MDR DLD1-TxR cells compared with sensitive DLD1 (DLD1-TxR cells)
25500 ± 925	5680 ± 163	concentration dependent effect	11100 ± 304	5720 ± 73	O=C1c2ccccc2C(=O)c2c(-c3ccccc3O)noc21 [Compound 5]	further compromised in the presence of MDR phenotype	128000 ± 39000	10.64	1550	significant beneficial effect on P-gp inhibition; also recorded: most prominent effect in both MDR cell lines	further compromised in the presence of MDR phenotype
231 ± 6	156 ± 4	concentration dependent effect	138 ± 3	199 ± 5	O=C1c2ccccc2C(=O)c2c(-c3ccncc3)noc21 [Compound 7]	evaded resistance in both MDR cancer cell lines	599 ± 15	3.31	390	most prominent effect in both MDR cell lines	evaded resistance in both MDR cancer cell lines
172 ± 5	45 ± 1	concentration dependent effect	50 ± 1	96 ± 2	O=C1c2ccccc2C(=O)c2c(-c3cccnc3)noc21 [Compound 9]		302 ± 8	3.33	540	most prominent effect in both MDR cell lines	
